Data from patent US8188150B2, “Use of beta-aminoalcohols in the treatment of inflammatory disorders and pain” (Biocopea Limited, priority 2006, dated 2012).

Key:
[1] = test system: inflammation induced by carrageenan paw injection; assay: Carrageenan Paw Assay; type: in vivo, male Wistar rats; conditions: oral gavage, half an hour before 2% carrageenan; paw measured at 1-5 hours
Experimental: Fasted (18 hour) male Wistar rats (105-130 g) were weighed and a basal mercury plethysmometer reading was taken of the right hind paw by submerging the paw in the mercury up to the tibiotarsal joint. Subsequently, vehicles, reference items and test articles were administered by oral gavage (10 ml/kg). Half an hour after treatment 0.1 ml of 2% carrageenan in 0.9% saline was injected into the subplanatar area of the right hind paw. The right paw was measured again with the plethysmometer at 1, 2, 3, 4 and 5 hours after carrageenan administration.

TNFα = assay: LPS Mouse Assay, serum TNFα by ELISA; type: in vivo, Balb C ByJ mice; conditions: i.p. or oral, 30 minutes before 1 mg/kg LPS i.p.; serum 2 hours after LPS
Experimental: (§1) 7 week-old Balb C ByJ mice (24-28 g) were administered, either by i.p. (5 ml/kg) or oral (10 ml/kg) administration, with vehicle or test article. 30 minutes later these animals were challenged with an intraperitoneal injection of 1 mg/kg LPS. 2 hours after LPS challenge blood samples were collected under light isoflurane anaesthesia into normal tubes by retro-orbital puncture. Samples were allowed to clot at room temperature and then spun at 6000 g for 3 min at 4° C. Serum was stored at −20° C. until use. Serum TNFα and IL-10 levels were analysed in duplicate by ELISA technique.

IL-10 = assay: LPS Mouse Assay, serum IL-10 by ELISA; type: in vivo, Balb C ByJ mice; conditions: i.p. or oral, 30 minutes before 1 mg/kg LPS i.p.; serum 2 hours after LPS
Experimental: as §1

Question: Which “effect on inflammation induced by carrageenan paw injection” value [1] does the source give for `CC(C)(CO)NCC(=O)c1cc(Cl)c(N)c(Cl)c1` [Compound (3), 1-(4-Amino-3,5-dichlorophenyl)-2-(1-hydroxy-2-methylpropan-2-ylamino)ethanone] here?
Answer: dose-dependant inhibitory effect

Question: And the “effect on serum TNFα” value (TNFα)?
Answer: strong inhibitory effects

Question: And the “effect on serum IL-10” value (IL-10)?
Answer: potentiating effects
